Some test systems named below: NCI-H460 lung; OVCAR-8 ovarian; SK-MEL-28 melanoma; MDA-MB-231 breast; NCI-H522 lung; HOP-62 NSCLC; HOP-92 NSCLC; OVCAR-4 ovarian; BT-549 breast; SN12C renal; U251 CNS.
Assay in all cases: growth of human tumour cells (NCI), 48 h

SMILES strings stand for the structures.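 Protocol summary: plate cells (96-well), add compound at 5 concentrations, incubate 48 h, interpolate endpoints linearly. The concentration for full growth arrest is given as TGI.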

`C[C@@H]1CCC2[C@@H](C)[C@@H](O[C@H]3O[C@@H]4O[C@@]5(C)CCC6[C@H](C)CCC([C@H]3C)[C@]64OO5)O[C@@H]3O[C@@]4(C)CCC1[C@@]23OO4` (stereo partly specified): the TGI in the assay on NCI-H460 lung, in the assay on OVCAR-8 ovarian, in the assay on SK-MEL-28 melanoma, in the assay on MDA-MB-231 breast, in the assay on NCI-H522 lung and in the assay on HOP-62 NSCLC was above 25 µM in each case. The TGI in the assay with HOP-92 NSCLC, in the assay on OVCAR-4 ovarian, in the assay on BT-549 breast, in the assay on SN12C renal and in the assay on U251 CNS was above 25 µM each time.
For `CC1=C(C#N)c2nc3ccccc3n2C(=O)C1(C)CCO` (stereo unspecified), the TGI in the assay with NCI-H460 lung, in the assay on OVCAR-8 ovarian, in the assay on SK-MEL-28 melanoma, in the assay on MDA-MB-231 breast, in the assay on NCI-H522 lung and with HOP-62 NSCLC was above 100 µM each time. Further, the TGI in the assay with HOP-92 NSCLC, in the assay on OVCAR-4 ovarian, in the assay on BT-549 breast, with SN12C renal and in the assay on U251 CNS was above 100 µM each time.
For the molecule `CC(C)(CO)CNc1nc(N)nc(Cl)c1/C=N/O`, the TGI in the assay with NCI-H460 lung, in the assay with OVCAR-8 ovarian, in the assay with SK-MEL-28 melanoma, in the assay with MDA-MB-231 breast, with NCI-H522 lung and in the assay on HOP-62 NSCLC was above 100 µM each time. Besides, the TGI with HOP-92 NSCLC is 84.7 µM; in the assay with OVCAR-4 ovarian, above 100 µM; in the assay with BT-549 breast, above 100 µM; in the assay on SN12C renal, above 100 µM; with U251 CNS, above 100 µM.
For the molecule `CC12c3c4ccc(C=O)c3Oc3ccc(C=O)c(c31)Oc1ccc(C=O)c(c12)O4`, the TGI with NCI-H460 lung, with OVCAR-8 ovarian, in the assay on SK-MEL-28 melanoma, in the assay with MDA-MB-231 breast, in the assay with NCI-H522 lung and in the assay on HOP-62 NSCLC was above 25 µM each time. Moreover, the TGI in the assay on HOP-92 NSCLC, in the assay on OVCAR-4 ovarian, in the assay with BT-549 breast, with SN12C renal and in the assay on U251 CNS was above 25 µM in each case.
Consider `COC(=O)c1ccccc1CC1Cc2cccc(C)c2C1=O` (stereo unspecified), for which the TGI with NCI-H460 lung was above 100 µM; in the assay with OVCAR-8 ovarian it was above 100 µM; with SK-MEL-28 melanoma, 94.5 µM; with MDA-MB-231 breast, above 100 µM; with NCI-H522 lung, 57.2 µM; in the assay on HOP-62 NSCLC, above 100 µM. Further, the TGI is 80.6 µM with HOP-92 NSCLC; above 100 µM in the assay with OVCAR-4 ovarian; above 100 µM in the assay on BT-549 breast; above 100 µM in the assay on SN12C renal; above 100 µM in the assay on U251 CNS.
Turning to `CCCCOCCOC1=C(Cl)C(=O)c2c(O)ccc(O)c2C1=O`, the TGI with NCI-H460 lung came out at 3.48 µM; with OVCAR-8 ovarian it was 2.56 µM; in the assay with SK-MEL-28 melanoma, 1.23 µM; in the assay on MDA-MB-231 breast, 1.07 µM; in the assay on NCI-H522 lung it was 1.33 µM; with HOP-62 NSCLC it was 2.49 µM. Moreover, the TGI is 0.657 µM with HOP-92 NSCLC; 1.99 µM in the assay with OVCAR-4 ovarian; 0.341 µM in the assay on BT-549 breast; 1.59 µM in the assay on SN12C renal; 3.55 µM with U251 CNS.
`O=[N+]([O-])c1cc2oc(CSc3ccccc3)nc2cc1Cl`: the TGI in the assay on NCI-H460 lung is 81.2 µM; in the assay on OVCAR-8 ovarian, above 100 µM; in the assay on SK-MEL-28 melanoma, above 100 µM; in the assay with MDA-MB-231 breast it was 76.9 µM; with NCI-H522 lung, above 100 µM; with HOP-62 NSCLC, above 100 µM. Moreover, the TGI with HOP-92 NSCLC was above 100 µM; in the assay with OVCAR-4 ovarian, above 100 µM; in the assay with BT-549 breast, 80.8 µM; in the assay on SN12C renal, above 100 µM; in the assay on U251 CNS, 66.6 µM.
Consider `O=C(c1ccccc1)c1ccc2c(c1)NC(=O)c1ccccc1SSc1ccccc1C(=O)N2`, for which the TGI in the assay with NCI-H460 lung, with OVCAR-8 ovarian, with SK-MEL-28 melanoma, in the assay on MDA-MB-231 breast, in the assay with NCI-H522 lung and in the assay on HOP-62 NSCLC was above 100 µM in each case. Further, the TGI with HOP-92 NSCLC, in the assay with OVCAR-4 ovarian, in the assay with BT-549 breast, with SN12C renal and with U251 CNS was above 100 µM throughout.
Take `C=C(C)CNCCN`: the TGI in the assay on NCI-H460 lung, with OVCAR-8 ovarian, in the assay on SK-MEL-28 melanoma, in the assay with MDA-MB-231 breast, in the assay with NCI-H522 lung and with HOP-62 NSCLC was above 100 µM each time. In addition, the TGI with HOP-92 NSCLC, with OVCAR-4 ovarian, in the assay with BT-549 breast, with SN12C renal and with U251 CNS was above 100 µM each time.
Regarding `OCCCc1ccc2c(c1)[C@H](CO)[C@@H](c1ccc(O)cc1)O2`, the TGI in the assay on NCI-H460 lung, in the assay with OVCAR-8 ovarian, with SK-MEL-28 melanoma, in the assay on MDA-MB-231 breast, in the assay on NCI-H522 lung and in the assay on HOP-62 NSCLC was above 100 µM throughout. The TGI in the assay on HOP-92 NSCLC is above 100 µM; in the assay on OVCAR-4 ovarian, 30.4 µM; in the assay on BT-549 breast it was 47.8 µM; in the assay on SN12C renal, above 100 µM; in the assay on U251 CNS, above 100 µM.
Take `CCN(C(=O)N[C@@H](C)C(=O)N[C@@H](Cc1ccccc1)C(=O)OC)c1ccccc1`: the TGI in the assay with NCI-H460 lung is 38.4 µM; with OVCAR-8 ovarian, above 100 µM; in the assay with SK-MEL-28 melanoma, 78.8 µM; with MDA-MB-231 breast it was above 100 µM; in the assay with NCI-H522 lung it was above 100 µM; with HOP-62 NSCLC it was above 100 µM. The TGI with HOP-92 NSCLC was 68 µM; with OVCAR-4 ovarian, above 100 µM; in the assay with BT-549 breast, above 100 µM; in the assay with SN12C renal it was 73.2 µM; with U251 CNS, above 100 µM.
Regarding `O=C1N(Cc2ccccc2)C2CSCC2N1Cc1ccccc1` (stereo unspecified), the TGI was 55.8 µM in the assay on NCI-H460 lung; above 100 µM with OVCAR-8 ovarian; above 100 µM with SK-MEL-28 melanoma; 68.3 µM in the assay with MDA-MB-231 breast; 24.2 µM in the assay on NCI-H522 lung; 58.3 µM in the assay with HOP-62 NSCLC. In addition, the TGI was 77.7 µM with HOP-92 NSCLC; above 100 µM in the assay on OVCAR-4 ovarian; 53.5 µM in the assay on BT-549 breast; above 100 µM in the assay with SN12C renal; above 100 µM with U251 CNS.
Turning to `O=c1c2c(no[n+]2[O-])c2ccccc2n1-c1ccccc1`, the TGI in the assay with NCI-H460 lung was 21.4 µM; with OVCAR-8 ovarian, 11.1 µM; in the assay on SK-MEL-28 melanoma it was 17 µM; in the assay with MDA-MB-231 breast, 24.8 µM; in the assay on NCI-H522 lung it was 3.27 µM; with HOP-62 NSCLC it was 22.5 µM. Further, the TGI is 17.6 µM in the assay on HOP-92 NSCLC; above 46.4 µM in the assay with OVCAR-4 ovarian; 8.56 µM in the assay with BT-549 breast; 17.2 µM with SN12C renal; 16.1 µM in the assay on U251 CNS.
Consider `CC(C)(C)c1ccc2c(c1)C#Cc1cc3c(cc1OCCCO2)C#Cc1cc(C(C)(C)C)ccc1OCCCO3`, for which the TGI with NCI-H460 lung, in the assay with OVCAR-8 ovarian, in the assay with SK-MEL-28 melanoma, in the assay on MDA-MB-231 breast, in the assay with NCI-H522 lung and with HOP-62 NSCLC was above 100 µM throughout. Further, the TGI was above 100 µM in the assay on HOP-92 NSCLC; above 100 µM in the assay with OVCAR-4 ovarian; 3.39 µM with BT-549 breast; above 100 µM in the assay with SN12C renal; above 100 µM with U251 CNS.
As to `Cn1c2ccccc2c2c(=S)c3ccccc3ccc21`, the TGI in the assay on NCI-H460 lung, in the assay with OVCAR-8 ovarian, with SK-MEL-28 melanoma, with MDA-MB-231 breast, in the assay on NCI-H522 lung and with HOP-62 NSCLC was above 100 µM in each case. Besides, the TGI in the assay on HOP-92 NSCLC, in the assay with OVCAR-4 ovarian, with BT-549 breast, in the assay on SN12C renal and in the assay on U251 CNS was above 100 µM in each case.
For `c1ccc(C2=NOC(c3ccccc3)N2C23CC4CC(CC(C4)C2)C3)cc1` (stereo unspecified), the TGI with NCI-H460 lung, with OVCAR-8 ovarian, in the assay with SK-MEL-28 melanoma, with MDA-MB-231 breast, in the assay with NCI-H522 lung and in the assay on HOP-62 NSCLC was above 10 µM each time. Also, the TGI with HOP-92 NSCLC, with OVCAR-4 ovarian, in the assay on BT-549 breast, in the assay on SN12C renal and in the assay with U251 CNS was above 10 µM in each case.

(Values after PubChem BioAssay (NCI).)
